According to patent publication US12012404B2, “Pyrimidoheterocyclic compounds and application thereof” (D3 BIO (WUXI) CO., LTD., priority 2020, dated 2024):
Where two headings read alike, the source gives them in different places.

Experiments:
[1] = Stability assay in plasma, human; assay type: in vitro ADME; conditions: 2 μM, 37° C.
Method: Purpose of the assay: Stabilities of the assay compounds in plasma of CD-1 mice and human were assayed, respectively.
Procedure of the assay: Cryopreserved plasma was thawed for 10-20 min. After the plasma was completely thawed, it was placed in a centrifuge and centrifuged at 3220×g for 5 min to remove any suspended matter and sediment in the plasma. 96-well incubation plates were prepared and named TO, T10, T30, T60, T120, respectively. 98 μL of blank plasmas of mouse, rat, canine, monkey and human were added to the corresponding incubation plates, then 2 μL of working solutions of the compound or the control compound were added to the corresponding plates in duplicate. All samples were incubated in a 37° C. water bath. The final incubation concentrations of the compound and the control compounds bisacodyl, enalapril maleate, procaine and probanthine were 2 μM, and the final organic phase content was 2.0%. At the end of incubation for each time point, the corresponding incubation plate was removed and 400 μL of a solution of 200 ng/mL of tolbutamide and labetalol in acetonitrile was added to each corresponding sample well to precipitate the protein. All sample plates were sealed and shaken well, and then centrifuged at 3220×g for 20 minutes. 50 μL of supernatant was taken out and diluted in 100 μL of ultrapure water. All samples were mixed well and then analyzed by LC/MS/MS.

[2] = Metabolic stability in hepatocytes, beagle dogs; assay type: in vitro ADME
Method: Purpose of the assay: Metabolic stabilities of assay compounds in hepatocytes of CD-1 mice, SD rats, beagle dogs, cynomolgus monkeys, and human were assayed, respectively.
Procedure of the assay: Several 96-well sample precipitation plates were prepared and named T0, T15, T30, T60, T90, T120, TO-MC, T120-MC and blank substrates, respectively. The recovery medium and incubation medium were taken out in advance and placed in a 37° C. water bath for pre-heating. Cryopreserved hepatocytes were removed from the liquid nitrogen tank and immediately immersed in a 37° C. water bath (approximately 90 seconds). After the cryopreserved hepatocytes had thawed and loosened, they were poured into a centrifuge tube containing 40 mL of recovery medium, and the tube was gently inverted to allow the cells to be resuspended in the recovery medium. The cells were centrifuged at 100×g at room temperature for 5 min, and the supernatant was removed. The hepatocytes were resuspended in an appropriate volume of incubation medium, and the cell viability was calculated by Trypan Blue staining method. 198 μL of hepatocyte suspension (0.51×10^6 cells/mL) was added to the preheated incubation plate. For the culture medium control group, 198 μL of hepatocyte-free incubation medium was added to T0-MC and T120-MC incubation plate. All incubation plates were pre-incubated in a 37° C. incubator for 10 minutes. Then 2 μL of working solutions of the assay sample and the control compound were added, respectively, and the mixture was mixed well. The incubation plate was immediately put into the shaker in the incubator, and the reaction was initiated while starting the timer. For each time point of each compound, 2 duplicate samples were prepared. The incubation conditions were 37° C., saturated humidity, and 5% CO2. In the assay system, the final concentration of the assay sample was 1 μM, the final concentration of the control sample was 3 μM, the final concentration of hepatocytes was 0.5×10^6 cells/mL, and the final concentration of the total organic solvent was 0.96%, of which the final concentration of DMSO was 0.1%. At the end of the incubation for the corresponding time point, the incubation plate was taken out, and 25 μL of a mixture of compound and control compound with cells was added to the sample plate containing 125 μL of stop solution (200 ng/mL tolbutamide and labetalol in acetonitrile). For the Blank sample plate, 25 μL of hepatocyte-free incubation medium was added directly. After sealing, all sample plates were shaken on a shaker at 600 rpm for 10 minutes, and then centrifuged at 3220×g for 20 minutes. Supernatants of the assay sample and the control sample were diluted with ultrapure water at a ratio of 1:3. All samples were mixed well and analyzed by LC/MS/MS.

plasma protein of human = assay: Protein binding rate by equilibrium dialysis, human plasma; assay type: in vitro ADME; conditions: 2 μM, dialysis 4 hours
Method: Purpose of the assay: Protein binding rate of the assay compounds in plasma of CD-1 mice, SD rats, beagle dogs, cynomolgus monkeys and human was determined by equilibrium dialysis.
Procedure of the assay: Plasma samples with a compound concentration of 2 μM were prepared using plasma of the above five species, placed in a 96-well equilibrium dialysis device, and dialyzed with phosphate buffer solution at 37±1° C. for 4 hours. Warfarin was used as the control compound in this assay. The concentrations of the assay compounds in plasma and dialysis buffer were determined by LC-MS/MS method.

[3] = Pharmacokinetics by oral administration and intravenous injection in CD mice; assay type: in vivo; conditions: for AUCu: AUC0-last × PPB(Unbound %); for Peak concentration, Cmax, u: Cmax × PPB(Unbound %); for Cmax: read-out: Peak concentration, Cmax; for Vd: CD, iv, 2.39 mg/kg
Method: 2) Assay on the Pharmacokinetics of the Assay Compounds by Oral Administration and Intravenous Injection in CD Mice
The assay compound was mixed with 5% dimethyl sulfoxide/95% (10% hydroxypropyl-β-cyclodextrin) solution. The mixture was vortexed and sonicated to prepare a 1 mg/mL clear solution, which was filtered through a microporous membrane for later use. Male CD mice aged 7 to 10 weeks were selected, and administered candidate compound solutions intravenously or orally. Whole blood was collected for a certain period of time, and prepared to obtain plasma. Drug concentration was analyzed by LC-MS/MS method, and pharmacokinetic parameters were calculated by Phoenix WinNonlin software (Pharsight, USA).

[4] = intravenous injection, 2.39 mg/kg (17), 2.0 mg/kg (8B)
[5] = oral, 14.7 mg/kg (17), 10.3 mg/kg (8B)
[6] = male, mouse, plasma, oral, 14.7 mg/kg (17), 10.3 mg/kg (8B)

For `C=C(F)C(=O)N1CCN(c2nc(OCC3CCCN3C)nc3c2COC(c2c(F)c(N)cc(C)c2C(F)(F)F)C3)CC1CC#N.Cl` (single isomer, unassigned) [Compound 8B hydrochloride], the “Detection of assay compound content within 120 min” value [1] was 114%, the “CLint(hep)” value ([2]; 1 μM) was less than 6.4 μL/min/10^6 and the “CLint(liver)” value ([2]; 1 μM) was less than 44 mL/min/kg. It also gave a T1/2 ([2]; 1 μM) greater than 3.613 h, a Protein unbound rate (plasma protein of human) of 10.6 and an AUC0-last [3, 4] of 1.297 µM·h. The “Apparent volume of distribution, Vdss” value [3, 4] was 3.9 L/kg, the “Clearance rate, CL” value [3, 4] was 40.6 mL/min/kg and the “Half-life period, T1/2” value [3, 4] was 1.7 h. The AUCu [3, 4] was 0.1556 µM·h, the “Apparent volume of distribution, Vdss, u” value ([3]; intravenous injection, 2.39 mg/kg (17), 2.0 mg/kg (8B), Vdss/PPB(Unbound %)) was 32.3 L/kg and the AUC0-last [3, 5] was 1.422 µM·h. For the same compound, the “Bioavailability F” value [3, 5] was 21.9%, the “Time-to-peak, Tmax” value [3, 5] was 1.0 h and the AUCu [3, 5] was 0.1706 µM·h. The “Peak concentration, Cmax, u” value [3, 5] was 51.7 nM and the Cmax [3, 5] was 431 nM.
In the case of `C=C(F)C(=O)N1CCN(c2nc(OC[C@@]34CCCN3C[C@H](F)C4)nc3c2COC(c2c(F)c(N)cc(C)c2C(F)(F)F)C3)C[C@@H]1CC#N` (stereo partly shown) [Compound 17], the “Detection of assay compound content within 120 min” value [1] is reported as 93%, the “CLint(hep)” value ([2]; 1 μM) is reported as 7.6 μL/min/10^6 and the half-life at 1 μM ([2]; dog, cryopreserved hepatocytes) is reported as 3.04 h. The CLint scaled at 1 μM ([2]; dog, cryopreserved hepatocytes, read-out: CLint(liver)) was 52.3 mL/min/kg, the Protein unbound rate (plasma protein of human) was 4.8 and the AUCu [3, 4] was 0.0202 µM·h. The Vd ([3]; male, mouse, plasma, intravenous injection, 2.39 mg/kg (17), 2.0 mg/kg (8B), Vdss/PPB(Unbound %), read-out: Apparent volume of distribution, Vdss, u) was 169 L/kg, the Vd ([3]; male, mouse, plasma, intravenous injection, 2.39 mg/kg (17), 2.0 mg/kg (8B), read-out: Apparent volume of distribution, Vdss) was 2.6 L/kg and the AUC(0-t) ([3]; male, mouse, plasma, intravenous injection, 2.39 mg/kg (17), 2.0 mg/kg (8B)) was 1.31 µM·h. For the same compound, the clearance ([3]; male, mouse, plasma, intravenous injection, 2.39 mg/kg (17), 2.0 mg/kg (8B), read-out: Clearance rate, CL) was 37.3 mL/min/kg, the half-life ([3]; male, mouse, plasma, intravenous injection, 2.39 mg/kg (17), 2.0 mg/kg (8B), read-out: Half-life period, T1/2 (converted)) was 1 h and the AUC(0-t) [3, 6] was 2.4 µM·h. It also gave a bioavailability ([3]; male, mouse, plasma, oral, 14.7 mg/kg (17), 10.3 mg/kg (8B), read-out: Bioavailability F) of 24.4%, a Cmax [3, 6] of 1460 nM and a Tmax ([3]; male, mouse, plasma, oral, 14.7 mg/kg (17), 10.3 mg/kg (8B), read-out: Time-to-peak, Tmax) of 0.25 h. The AUCu [3, 5] was 0.037 µM·h and the “Peak concentration, Cmax, u” value [3, 5] was 22.5 nM.
